The target in one experiment is T1, HSH2D SH2 domain (Homo sapiens, UniProt Q96JZ2).
T1 sequence (Q96JZ2 34-125 limits assumed): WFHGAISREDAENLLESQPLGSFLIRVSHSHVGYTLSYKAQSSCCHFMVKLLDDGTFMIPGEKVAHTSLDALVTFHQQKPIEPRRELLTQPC
Description: FP saturation binding assay.

A further experiment addresses T2, PTK6 SH2 domain (Homo sapiens, UniProt Q13882).
T2 construct: from the PTK6 SH2 domain; 6X His; thioredoxin; made in house; host or cells: E. coli BL21(DE3)pLysS
Description: FP saturation binding assay. Particulars: protein PTK6; FP, high-confidence ErbB interactions; mean of replicate hits. As for the experimental part:
(See Figure 1A) Rhodamine-labeled peptides were dissolved in assay buffer (20 mM HEPES, 100 mM KCl, 0.1% Tween-20, 5 mM DTT, pH 7.8), diluted to a concentration of 20 nM, and plated into black 384-well plates (Corning, Corning, NY) at 5 µL/well using a Perkin Elmer EP3 pipetting workstation (V&P Scientific, Inc., San Diego, CA). SH2, PTB, and thioredoxin control proteins were plated into the first column of 2 mL 96-well plates (Corning) at a concentration of 20 µM and serially diluted 1∶2 into freezing buffer (300 mM NaCl, 50 mM Na2PO4, pH 8, 20% glycerol v/v) eleven times using a Tecan Freedom EVO 100 workstation (Tecan, Männedorf, Switzerland). For the interaction assay, 5 µL of each of the twelve protein concentrations was added to the peptide-containing 384-well plates via the EP3 resulting in a protein dilution range of 0.002–10 µM and a final volume of 10 µL; peptide concentration was fixed at 10 nM. Peptide/protein samples were incubated for 20 minutes at room temperature in the dark and fluorescence polarization (FP) was measured in an Analyst GT multimode reader (Molecular Devices, Sunnyvale, CA) with excitation and emission wavelengths of 530 nm and 555 nm, respectively. Experimental values were output as millipolarization (mP) units and imported into MATLAB (The MathWorks, Inc., Natick, MA) in which equation (1) was used to determine dissociation constants (KDs) for each protein/peptide pairing by least squares nonlinear regression. [drawing 1] (1)
FP was described by the following equation: P=Iparallel-IperpendicularIparallel+Iperpendicular, where “P” denotes polarization, and “I” denotes the fluorescent intensity relative to the plane of incident light. Experimental values were output as millipolarization (mP) units and imported into MATLAB where the following equation was used to determine dissociation constants (KDs) for each protein/peptide pairing by least squares nonlinear regression:
Pobs=Pmax∙ProteinKD+Protein [picture] (1)
Peptides were initially tested for systematic plate effects across protein dilutions and nonspecific binding to thioredoxin by linear regression analysis and any effects were regressed out. The median baseline control polarization value for each plate was then subtracted from each data point to make each binding curve intersect at zero. Plates with excessive variation in baseline control polarizations on both a global and run-specific manner (Dixon’s Q test, p < 0.05) were excluded from further analysis. Outliers in each binding curve were identified and removed using an iterative procedure as follows. The residuals for each fit were used to calculate a global standard deviation of the residuals (GSDR) for each concentration of SH2 domain over all interactions, and individual data points with residuals < or > two GSDR from the global mean residual were flagged as outliers. The outlier with the largest residual from each interaction was removed and nonlinear regression was again performed. This procedure was repeated if additional outliers were identified for an interaction, discarding the interaction if the number of outliers exceeded three. […] In order to further control our false positive rate against hidden confounding variables producing binding artifacts, we sought to determine whether there was a significant relationship between the strength of an interaction and its technical replication rate at our stringent significance and filtering thresholds. We performed logistic regression on the proportion of successful replicates for each interaction query against KD for all interactions (Figure S15A). […] This is related to the observation that the majority of interactions detected by FP are tight (Figure S15B). With this logit model, we assigned a probability to each peptide-protein interaction in our data by using a binomial proportions test to compare the observed versus the expected replication rate at the particular KD of that interaction (Table S4). […]

Experiment [1] has as its target T3, SH2 and PTB domains (Homo sapiens, UniProt P07947).
T3 construct: thioredoxin; made in house; host or cells: BL21(DE3)pLysS E. coli
Description: In-house protein microarrays (with or without 5 mM DTT), protein named per line. Particulars: protein YES1, array fabrication # 39336. The format is binding. The procedure: (§1) 300 pL of purified recombinant proteins and a thioredoxin tag control were spotted at a concentration of ∼40 µM in duplicate onto aldehyde-coated microscope slides (Erie Scientific Company, Portsmouth, NH) using a Nano-Plotter (NP) 2.1/E noncontact microarrayer (GeSiM, Munich, Germany). 16 identical microarrays per slide were printed in a 2×8 (column by row) format with distances of 9 mm between individual arrays; each array consisted of a 14×14 configuration of spots 400 µm apart. Following printing at a constant humidity level of 50%, slides were desiccated overnight and stored at −80°C. For peptide probing, array slides were transferred to 96-well microplates (TeleChem International, Inc., Sunnyvale, CA) and sandwiched with silicone gaskets. Prior to peptide addition, aldehyde sites were quenched with buffer B (20 mM HEPES, 100 mM KCl, 0.1% Tween-20, 5 mM DTT, pH 7.8) containing 1% bovine serum albumin (BSA) (w/v) for one hour at room temperature; moderate agitation was applied in a plate shaker (IKA, Germany) to displace glycerol from the surface area of protein sample spots. […] The arrays were subsequently washed once with 300 µL of buffer B and once with 300 µL of ddH2O. Residual water was removed by centrifugation; slides were stored under desiccation in the dark until analysis.
(§2) Microarray slides were scanned at a resolution of 10 µm using a GenePix 4000B microarray scanner and analyzed using GenePix Pro v6.0 software (Molecular Devices, Sunnyvale, CA). To independently visualize protein spots irrespective of peptide binding, samples were printed simultaneously with 400 nM of Cyanine-5 (Cy5) labeled bovine serum albumin (BSA). […] Following spot layout identification via Cy5 labeled BSA, the mean fluorescence intensity of rhodamine for duplicate protein spots was quantified and normalized by subtracting the corresponding mean fluorescence intensity of thioredoxin. Normalized fluorescence values were then imported into MATLAB and KDs determined as previously described.

In experiment [2] the target is T4, SH2 and PTB domains (Homo sapiens, UniProt P78314).
T4 construct: thioredoxin; made in house; host or cells: BL21(DE3)pLysS E. coli
T4 sequence (P78314 1-561): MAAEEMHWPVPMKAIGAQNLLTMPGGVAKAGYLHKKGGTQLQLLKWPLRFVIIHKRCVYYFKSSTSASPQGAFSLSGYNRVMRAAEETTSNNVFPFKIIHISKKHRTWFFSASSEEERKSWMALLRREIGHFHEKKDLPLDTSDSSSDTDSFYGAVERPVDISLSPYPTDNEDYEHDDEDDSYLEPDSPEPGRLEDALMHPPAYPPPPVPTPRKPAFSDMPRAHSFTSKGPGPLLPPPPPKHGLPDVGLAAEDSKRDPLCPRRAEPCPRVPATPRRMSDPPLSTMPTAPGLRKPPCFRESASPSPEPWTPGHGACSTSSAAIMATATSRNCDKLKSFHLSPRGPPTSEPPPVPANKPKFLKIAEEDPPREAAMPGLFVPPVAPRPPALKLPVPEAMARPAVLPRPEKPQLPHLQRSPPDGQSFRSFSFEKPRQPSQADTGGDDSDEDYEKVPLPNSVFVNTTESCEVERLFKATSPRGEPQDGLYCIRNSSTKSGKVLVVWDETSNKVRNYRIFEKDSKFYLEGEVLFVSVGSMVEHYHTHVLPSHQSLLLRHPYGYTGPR
The description is as above. Type of experiment: binding. Particulars: protein SH3BP2, array fabrication # 39336. As for the experimental part: as §1, §2

Experiment [3] has as its target T5, SH2 and PTB domains (Homo sapiens, UniProt P43405).
T5 construct: thioredoxin; made in house; host or cells: BL21(DE3)pLysS E. coli
The description is as above. Type of experiment: binding. Particulars: protein SYK-NC, array fabrication # 39336. The procedure: as §1, §2

Experiment [4] has as its target T6, SH2 and PTB domains (Homo sapiens, UniProt P42684).
T6 construct: thioredoxin; made in house; host or cells: BL21(DE3)pLysS E. coli
The description is as above. The format is binding. Particulars: protein ABL2, array fabrication # 39336. As for the experimental part:
as §1, §2

In experiment [5] the target is T7, SH2 and PTB domains (Homo sapiens, UniProt P51451).
T7 construct: thioredoxin; made in house; host or cells: BL21(DE3)pLysS E. coli
The description is as above. Type of experiment: binding. Particulars: protein BLK, array fabrication # 39336. The procedure:
as §1, §2

Experiment [6] addresses T8, SH2 and PTB domains (Homo sapiens, UniProt P16885).
T8 construct: thioredoxin; made in house; host or cells: BL21(DE3)pLysS E. coli
T8 sequence (P16885 1-1265): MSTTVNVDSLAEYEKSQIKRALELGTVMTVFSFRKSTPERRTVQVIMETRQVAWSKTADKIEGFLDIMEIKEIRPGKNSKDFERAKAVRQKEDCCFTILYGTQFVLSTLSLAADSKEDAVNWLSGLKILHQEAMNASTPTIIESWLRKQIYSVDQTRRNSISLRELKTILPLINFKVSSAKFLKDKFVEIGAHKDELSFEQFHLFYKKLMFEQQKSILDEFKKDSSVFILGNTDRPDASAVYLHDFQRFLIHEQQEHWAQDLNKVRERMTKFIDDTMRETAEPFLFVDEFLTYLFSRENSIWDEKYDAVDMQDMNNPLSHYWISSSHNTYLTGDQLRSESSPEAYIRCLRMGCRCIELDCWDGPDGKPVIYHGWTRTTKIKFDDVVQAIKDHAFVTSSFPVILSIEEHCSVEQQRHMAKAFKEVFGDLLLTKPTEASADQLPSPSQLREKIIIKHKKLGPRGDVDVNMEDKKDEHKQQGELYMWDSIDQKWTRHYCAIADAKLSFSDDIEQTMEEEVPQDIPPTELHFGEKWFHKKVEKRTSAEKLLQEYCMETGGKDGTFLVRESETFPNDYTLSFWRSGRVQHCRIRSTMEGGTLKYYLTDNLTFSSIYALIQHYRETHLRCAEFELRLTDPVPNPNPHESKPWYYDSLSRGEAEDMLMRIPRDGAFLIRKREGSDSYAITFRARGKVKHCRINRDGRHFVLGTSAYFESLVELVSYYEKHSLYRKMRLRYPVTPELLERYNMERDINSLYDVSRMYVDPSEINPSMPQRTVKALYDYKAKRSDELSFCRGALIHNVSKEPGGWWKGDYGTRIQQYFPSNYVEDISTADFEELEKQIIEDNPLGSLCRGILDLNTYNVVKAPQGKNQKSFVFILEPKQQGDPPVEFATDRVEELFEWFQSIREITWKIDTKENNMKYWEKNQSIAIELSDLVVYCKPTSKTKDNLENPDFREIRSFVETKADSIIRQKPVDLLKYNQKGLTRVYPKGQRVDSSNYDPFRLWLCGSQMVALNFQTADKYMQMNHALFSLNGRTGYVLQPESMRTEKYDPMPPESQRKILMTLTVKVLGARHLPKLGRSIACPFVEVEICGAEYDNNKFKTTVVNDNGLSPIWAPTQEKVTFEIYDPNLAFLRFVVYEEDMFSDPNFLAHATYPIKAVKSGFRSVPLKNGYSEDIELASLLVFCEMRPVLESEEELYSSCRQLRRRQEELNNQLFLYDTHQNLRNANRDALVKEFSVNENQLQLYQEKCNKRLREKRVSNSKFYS
The experiment is described as above. Type of experiment: binding. As to conditions: protein PLCG2-NC, array fabrication # 39336. As for the experimental part:
as §1, §2

Residues, ends and D or L forms follow the SMILES beside them.

T6 sequence (P42684 whole entry, the tested form may be a part): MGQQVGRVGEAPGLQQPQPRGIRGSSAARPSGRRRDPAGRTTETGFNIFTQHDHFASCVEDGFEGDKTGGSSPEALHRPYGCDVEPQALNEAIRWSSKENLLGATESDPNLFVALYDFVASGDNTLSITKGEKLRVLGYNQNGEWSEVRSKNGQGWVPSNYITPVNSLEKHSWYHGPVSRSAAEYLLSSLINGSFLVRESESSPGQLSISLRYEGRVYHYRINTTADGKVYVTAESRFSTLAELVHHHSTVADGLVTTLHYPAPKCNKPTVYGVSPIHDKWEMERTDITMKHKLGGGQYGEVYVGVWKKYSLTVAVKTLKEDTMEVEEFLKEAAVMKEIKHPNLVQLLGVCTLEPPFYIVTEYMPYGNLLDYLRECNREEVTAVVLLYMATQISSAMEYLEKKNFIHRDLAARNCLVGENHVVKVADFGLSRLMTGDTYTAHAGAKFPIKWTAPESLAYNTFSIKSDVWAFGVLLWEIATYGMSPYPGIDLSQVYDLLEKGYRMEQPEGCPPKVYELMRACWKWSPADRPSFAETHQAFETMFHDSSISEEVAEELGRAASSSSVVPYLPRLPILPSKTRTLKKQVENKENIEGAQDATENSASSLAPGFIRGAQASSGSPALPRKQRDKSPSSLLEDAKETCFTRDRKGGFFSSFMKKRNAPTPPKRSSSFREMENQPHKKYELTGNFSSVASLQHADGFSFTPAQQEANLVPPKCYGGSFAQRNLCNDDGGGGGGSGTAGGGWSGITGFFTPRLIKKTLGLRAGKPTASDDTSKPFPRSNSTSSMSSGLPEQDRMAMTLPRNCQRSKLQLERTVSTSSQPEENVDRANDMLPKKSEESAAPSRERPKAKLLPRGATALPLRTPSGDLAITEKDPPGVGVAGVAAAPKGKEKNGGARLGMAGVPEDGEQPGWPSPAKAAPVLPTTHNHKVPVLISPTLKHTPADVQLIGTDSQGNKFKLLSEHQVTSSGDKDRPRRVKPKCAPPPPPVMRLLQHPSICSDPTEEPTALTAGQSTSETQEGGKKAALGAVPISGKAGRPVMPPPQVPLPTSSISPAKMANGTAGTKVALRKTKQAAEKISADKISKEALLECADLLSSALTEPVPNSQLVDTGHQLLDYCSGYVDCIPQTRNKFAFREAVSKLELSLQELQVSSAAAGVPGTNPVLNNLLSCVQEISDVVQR
T3 sequence (P07947 whole entry, the tested form may be a part): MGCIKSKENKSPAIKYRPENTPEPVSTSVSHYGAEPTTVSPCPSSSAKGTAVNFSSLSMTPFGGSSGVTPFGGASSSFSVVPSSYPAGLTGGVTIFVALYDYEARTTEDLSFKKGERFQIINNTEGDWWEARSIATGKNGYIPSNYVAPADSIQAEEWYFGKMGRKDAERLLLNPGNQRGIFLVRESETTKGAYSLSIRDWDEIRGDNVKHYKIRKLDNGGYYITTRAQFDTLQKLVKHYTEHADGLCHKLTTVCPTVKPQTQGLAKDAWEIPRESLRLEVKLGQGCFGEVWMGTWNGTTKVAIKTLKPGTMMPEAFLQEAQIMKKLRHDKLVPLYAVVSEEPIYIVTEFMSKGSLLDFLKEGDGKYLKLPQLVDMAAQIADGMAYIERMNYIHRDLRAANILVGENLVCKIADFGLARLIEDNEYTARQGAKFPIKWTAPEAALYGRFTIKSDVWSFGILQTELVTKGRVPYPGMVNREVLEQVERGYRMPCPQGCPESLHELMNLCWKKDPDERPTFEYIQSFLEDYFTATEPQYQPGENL
T7 sequence (P51451 whole entry, the tested form may be a part): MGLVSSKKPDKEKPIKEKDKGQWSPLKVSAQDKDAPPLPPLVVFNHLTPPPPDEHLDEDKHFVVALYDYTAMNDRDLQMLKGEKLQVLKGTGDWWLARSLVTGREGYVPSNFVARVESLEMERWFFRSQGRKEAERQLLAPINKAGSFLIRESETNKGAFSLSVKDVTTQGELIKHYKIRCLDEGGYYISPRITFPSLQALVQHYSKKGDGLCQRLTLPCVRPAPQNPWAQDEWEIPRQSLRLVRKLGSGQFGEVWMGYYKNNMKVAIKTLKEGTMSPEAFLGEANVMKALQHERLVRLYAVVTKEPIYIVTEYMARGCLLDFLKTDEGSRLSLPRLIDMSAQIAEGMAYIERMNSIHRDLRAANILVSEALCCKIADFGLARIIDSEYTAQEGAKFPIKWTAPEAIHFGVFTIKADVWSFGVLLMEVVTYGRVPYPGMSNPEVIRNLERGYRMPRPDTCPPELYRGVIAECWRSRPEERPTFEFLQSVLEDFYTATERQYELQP
T2 sequence (Q13882 78-170 limits assumed): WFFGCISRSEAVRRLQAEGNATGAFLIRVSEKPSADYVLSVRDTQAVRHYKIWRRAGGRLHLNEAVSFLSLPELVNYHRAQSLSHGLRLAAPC

By Kd is commonly meant the equilibrium constant for the complex coming apart. Low readings indicate a tighter complex, high ones a looser complex. On to `C[C@H](NC(=O)[C@H](CC(N)=O)NC(=O)[C@H](Cc1c[nH]cn1)NC(=O)[C@H](Cc1ccc(OP(=O)(O)O)cc1)NC(=O)[C@H](CCC(=O)O)NC(=O)[C@@H]1CCCN1C(=O)[C@H](CC(N)=O)NC(=O)[C@@H](N)CC(=O)O)C(=O)N[C@@H](CO)C(=O)N[C@@H](CC(N)=O)C(=O)NCC(=O)N1CCC[C@H]1C(=O)N[C@@H](CC(=O)O)C(=O)O` [ErbB4 1188 13-mer] (HELM PEPTIDE1{D.N.P.E.[O=C([C@H](Cc1ccc(OP(=O)(O)O)cc1)N[*:1])[*:2]].H.N.A.S.N.G.P.D}$$$$V2.0), for which the Kd came out at 3050 nM on HSH2D SH2 domain and 9420 nM at PTK6 SH2 domain.
With `CC(C)C[C@H](NC(=O)[C@@H](NC(=O)[C@@H](NC(=O)CNC(=O)[C@@H]1CCCN1)[C@@H](C)O)C(C)C)C(=O)N1CCC[C@H]1C(=O)N1CCC[C@H]1C(=O)N1CCC[C@H]1C(=O)N1CCC[C@H]1C(=O)N[C@@H](Cc1ccc(OP(=O)(O)O)cc1)C(=O)N[C@@H](CCCNC(=N)N)C(=O)N[C@@H](Cc1c[nH]cn1)C(=O)N[C@@H](CCCNC(=N)N)C(=O)N[C@@H](CC(N)=O)C(=O)N[C@H](C(=O)N[C@H](C(=O)N[C@H](C(=O)N[C@@H](CC(=O)O)C(=O)O)C(C)C)C(C)C)[C@@H](C)O` [ErbB4 pY1301 (18-mer)] (HELM PEPTIDE1{P.G.T.V.L.P.P.P.P.[O=C([C@H](Cc1ccc(OP(=O)(O)O)cc1)N[*:1])[*:2]].R.H.R.N.T.V.V.D}$$$$V2.0), the “Kd” value came out at 1370 nM at SH2 and PTB domains [1] (PM assay replicate # 39341); 4860 nM at SH2 and PTB domains [1] (PM assay replicate # 39342); 1180 nM at SH2 and PTB domains [2] (PM assay replicate # 39341); 1610 nM on SH2 and PTB domains [2] (PM assay replicate # 39342); 800 nM on SH2 and PTB domains [3] (PM assay replicate # 39341); 1170 nM at SH2 and PTB domains [3] (PM assay replicate # 39342). Besides, the “Kd” value at SH2 and PTB domains [4] (PM assay replicate # 39341) is 1030 nM; on SH2 and PTB domains [4] (PM assay replicate # 39342) it was 0.68 nM; at SH2 and PTB domains [5] (PM assay replicate # 39341) it was 1180 nM; on SH2 and PTB domains [5] (PM assay replicate # 39342), 1600 nM; at SH2 and PTB domains [6] (PM assay replicate # 39341) it was 810 nM; on SH2 and PTB domains [6] (PM assay replicate # 39342), 8370 nM.

Source of the values: publication PMC3433420 (PLoS ONE, 2012).
